Source: the kinase profiling compilation of Christmann-Franck et al. (2016)

Experiments:
Assay in all cases: radiometric filter-binding kinase assay, Kinase HotSpot
Conditions in all cases: compound 0.5 µM; ATP 10 µM
BRSK2 (human) = BRSK2 (human) (UniProt Q8IWQ3)
STK24 (human) = STK24 (human) (UniProt Q9Y6E0)
NUAK1 (human) = NUAK1 (human) (UniProt O60285)
CSNK2A2 (human) = CSNK2A2 (human) (UniProt P19784)
CLK4 (human) = CLK4 (human) (UniProt Q9HAZ1)
KIT (human) = KIT (human) (UniProt P10721)
GRK5 (human) = GRK5 (human) (UniProt P34947)
NLK (human) = NLK (human) (UniProt Q9UBE8)
CDK2 CCNE1 (human) = CDK2 CCNE1 (human) (UniProt P24941+P24864)
ABL2 (human) = ABL2 (human) (UniProt P42684)
WNK3 (human) = WNK3 (human) (UniProt Q9BYP7)
HIPK3 (human) = HIPK3 (human) (UniProt Q9H422)
ROCK2 (human) = ROCK2 (human) (UniProt O75116)
EPHA2 (human) = EPHA2 (human) (UniProt P29317)
PRKCG (human) = PRKCG (human) (UniProt P05129)
ACVRL1 (human) = ACVRL1 (human) (UniProt P37023)
CSNK1A1 (human) = CSNK1A1 (human) (UniProt P48729)
CSNK1G3 (human) = CSNK1G3 (human) (UniProt Q9Y6M4)
PRKACA (human) = PRKACA (human) (UniProt P17612)
NEK2 (human) = NEK2 (human) (UniProt P51955)
AURKB (human) = AURKB (human) (UniProt Q96GD4)
CSNK1E (human) = CSNK1E (human) (UniProt P49674)
CDK1 CCNA2 (human) = CDK1 CCNA2 (human) (UniProt P06493+P20248)
EPHB1 (human) = EPHB1 (human) (UniProt P54762)
MYLK (human) = MYLK (human) (UniProt Q15746)
AKT1 (human) = AKT1 (human) (UniProt P31749)
FLT3 (human) = FLT3 (human) (UniProt P36888)
MARK2 (human) = MARK2 (human) (UniProt Q7KZI7)
PRKCB2 (human) = PRKCB2 (human) (UniProt P05771)
STK4 (human) = STK4 (human) (UniProt Q13043)
CDK9 CCNT1 (human) = CDK9 CCNT1 (human) (UniProt P50750+O60563)
TNK2 (human) = TNK2 (human) (UniProt Q07912)
GRK7 (human) = GRK7 (human) (UniProt Q8WTQ7)
MAPKAPK5 (human) = MAPKAPK5 (human) (UniProt Q8IW41)
HIPK4 (human) = HIPK4 (human) (UniProt Q8NE63)
NTRK3 (human) = NTRK3 (human) (UniProt Q16288)
MERTK (human) = MERTK (human) (UniProt Q12866)
KDR (human) = KDR (human) (UniProt P35968)
MAPK9 (human) = MAPK9 (human) (UniProt P45984)
FLT1 (human) = FLT1 (human) (UniProt P17948)
PIM1 (human) = PIM1 (human) (UniProt P11309)
SRPK3 (human) = SRPK3 (human) (UniProt Q9UPE1)
Sequence of SRPK3 (human) (Q9UPE1 whole entry, looked up): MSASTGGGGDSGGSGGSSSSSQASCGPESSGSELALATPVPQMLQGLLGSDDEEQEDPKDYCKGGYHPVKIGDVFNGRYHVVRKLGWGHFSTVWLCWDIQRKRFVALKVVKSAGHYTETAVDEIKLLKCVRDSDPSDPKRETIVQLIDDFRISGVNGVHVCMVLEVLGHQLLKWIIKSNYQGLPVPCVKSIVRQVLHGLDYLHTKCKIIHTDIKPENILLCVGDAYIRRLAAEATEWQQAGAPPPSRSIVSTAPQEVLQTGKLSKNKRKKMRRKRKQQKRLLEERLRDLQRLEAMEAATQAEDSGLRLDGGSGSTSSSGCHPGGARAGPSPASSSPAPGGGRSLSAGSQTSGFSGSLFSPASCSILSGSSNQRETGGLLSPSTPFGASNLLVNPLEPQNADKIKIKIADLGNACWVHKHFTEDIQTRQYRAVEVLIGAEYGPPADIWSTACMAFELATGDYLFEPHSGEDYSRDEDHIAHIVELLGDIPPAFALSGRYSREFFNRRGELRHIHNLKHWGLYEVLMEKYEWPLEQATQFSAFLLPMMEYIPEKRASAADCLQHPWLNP

Sequence of CDK1 CCNA2 (human) (P06493 whole entry, looked up): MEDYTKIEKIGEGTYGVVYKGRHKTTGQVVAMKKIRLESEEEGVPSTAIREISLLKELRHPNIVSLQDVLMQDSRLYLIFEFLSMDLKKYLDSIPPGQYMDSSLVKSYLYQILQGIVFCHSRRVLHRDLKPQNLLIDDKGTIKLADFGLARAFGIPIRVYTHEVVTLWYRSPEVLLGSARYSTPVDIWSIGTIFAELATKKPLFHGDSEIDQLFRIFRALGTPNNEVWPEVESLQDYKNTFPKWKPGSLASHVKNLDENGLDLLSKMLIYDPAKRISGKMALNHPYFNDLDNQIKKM
Sequence of CDK1 CCNA2 (human) (P20248 whole entry, looked up): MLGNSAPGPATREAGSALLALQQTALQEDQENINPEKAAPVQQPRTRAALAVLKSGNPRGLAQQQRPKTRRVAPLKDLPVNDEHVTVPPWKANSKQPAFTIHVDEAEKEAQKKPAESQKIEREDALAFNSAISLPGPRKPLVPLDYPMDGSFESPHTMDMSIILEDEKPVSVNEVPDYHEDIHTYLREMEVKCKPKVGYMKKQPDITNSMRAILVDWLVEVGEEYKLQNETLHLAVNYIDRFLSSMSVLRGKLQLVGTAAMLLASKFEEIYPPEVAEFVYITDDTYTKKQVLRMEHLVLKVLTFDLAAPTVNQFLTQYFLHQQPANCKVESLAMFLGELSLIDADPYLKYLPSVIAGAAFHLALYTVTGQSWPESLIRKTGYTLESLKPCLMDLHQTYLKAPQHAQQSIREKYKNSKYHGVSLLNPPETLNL
Sequence of ACVRL1 (human) (P37023 whole entry, looked up): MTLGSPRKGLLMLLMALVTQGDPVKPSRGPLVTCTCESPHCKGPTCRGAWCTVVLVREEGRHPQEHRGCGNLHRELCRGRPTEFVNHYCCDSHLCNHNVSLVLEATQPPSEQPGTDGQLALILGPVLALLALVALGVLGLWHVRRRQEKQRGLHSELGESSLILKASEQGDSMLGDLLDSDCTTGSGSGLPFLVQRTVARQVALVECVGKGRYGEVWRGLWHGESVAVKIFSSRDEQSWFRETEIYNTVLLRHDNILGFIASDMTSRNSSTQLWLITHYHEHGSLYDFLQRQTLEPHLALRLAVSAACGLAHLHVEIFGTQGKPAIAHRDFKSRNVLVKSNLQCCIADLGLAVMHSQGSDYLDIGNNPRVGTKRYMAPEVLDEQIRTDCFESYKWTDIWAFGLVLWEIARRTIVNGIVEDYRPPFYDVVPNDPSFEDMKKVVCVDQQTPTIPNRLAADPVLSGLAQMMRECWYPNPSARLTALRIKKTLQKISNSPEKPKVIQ
Sequence of MERTK (human) (Q12866 whole entry, looked up): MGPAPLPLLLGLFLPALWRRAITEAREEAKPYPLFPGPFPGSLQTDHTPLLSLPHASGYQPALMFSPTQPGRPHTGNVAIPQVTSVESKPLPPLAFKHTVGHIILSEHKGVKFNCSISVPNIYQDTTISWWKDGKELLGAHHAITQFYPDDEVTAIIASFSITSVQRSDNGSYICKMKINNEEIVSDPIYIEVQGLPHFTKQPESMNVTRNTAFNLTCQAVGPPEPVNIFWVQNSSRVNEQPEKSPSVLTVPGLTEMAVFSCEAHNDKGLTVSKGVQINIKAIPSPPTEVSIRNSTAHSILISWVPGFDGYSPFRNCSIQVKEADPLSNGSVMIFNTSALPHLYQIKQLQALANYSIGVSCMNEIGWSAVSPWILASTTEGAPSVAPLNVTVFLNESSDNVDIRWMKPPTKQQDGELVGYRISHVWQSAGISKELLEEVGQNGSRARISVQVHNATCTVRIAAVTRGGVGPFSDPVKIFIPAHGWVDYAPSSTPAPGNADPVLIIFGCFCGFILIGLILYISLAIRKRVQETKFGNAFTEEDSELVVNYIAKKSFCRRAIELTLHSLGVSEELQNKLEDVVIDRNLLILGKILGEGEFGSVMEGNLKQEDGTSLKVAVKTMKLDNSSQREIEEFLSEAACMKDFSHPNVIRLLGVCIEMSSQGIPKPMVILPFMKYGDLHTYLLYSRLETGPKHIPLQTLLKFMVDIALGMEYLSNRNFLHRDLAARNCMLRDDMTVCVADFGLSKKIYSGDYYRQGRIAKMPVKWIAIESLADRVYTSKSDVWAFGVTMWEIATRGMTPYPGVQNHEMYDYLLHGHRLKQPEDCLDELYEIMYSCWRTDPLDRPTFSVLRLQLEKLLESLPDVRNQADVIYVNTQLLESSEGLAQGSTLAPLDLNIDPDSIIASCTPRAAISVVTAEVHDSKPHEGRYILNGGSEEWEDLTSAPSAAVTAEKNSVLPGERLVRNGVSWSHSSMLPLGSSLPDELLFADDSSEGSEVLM
Sequence of CSNK1A1 (human) (P48729 whole entry, looked up): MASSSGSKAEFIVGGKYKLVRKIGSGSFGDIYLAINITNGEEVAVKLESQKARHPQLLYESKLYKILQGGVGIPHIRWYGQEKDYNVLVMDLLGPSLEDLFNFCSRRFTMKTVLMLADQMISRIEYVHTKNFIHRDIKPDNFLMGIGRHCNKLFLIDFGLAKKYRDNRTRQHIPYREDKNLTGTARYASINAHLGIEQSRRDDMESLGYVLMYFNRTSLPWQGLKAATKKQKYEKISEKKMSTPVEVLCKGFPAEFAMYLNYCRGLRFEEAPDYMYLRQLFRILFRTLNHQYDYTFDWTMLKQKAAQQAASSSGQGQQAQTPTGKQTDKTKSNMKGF
Sequence of BRSK2 (human) (Q8IWQ3 whole entry, looked up): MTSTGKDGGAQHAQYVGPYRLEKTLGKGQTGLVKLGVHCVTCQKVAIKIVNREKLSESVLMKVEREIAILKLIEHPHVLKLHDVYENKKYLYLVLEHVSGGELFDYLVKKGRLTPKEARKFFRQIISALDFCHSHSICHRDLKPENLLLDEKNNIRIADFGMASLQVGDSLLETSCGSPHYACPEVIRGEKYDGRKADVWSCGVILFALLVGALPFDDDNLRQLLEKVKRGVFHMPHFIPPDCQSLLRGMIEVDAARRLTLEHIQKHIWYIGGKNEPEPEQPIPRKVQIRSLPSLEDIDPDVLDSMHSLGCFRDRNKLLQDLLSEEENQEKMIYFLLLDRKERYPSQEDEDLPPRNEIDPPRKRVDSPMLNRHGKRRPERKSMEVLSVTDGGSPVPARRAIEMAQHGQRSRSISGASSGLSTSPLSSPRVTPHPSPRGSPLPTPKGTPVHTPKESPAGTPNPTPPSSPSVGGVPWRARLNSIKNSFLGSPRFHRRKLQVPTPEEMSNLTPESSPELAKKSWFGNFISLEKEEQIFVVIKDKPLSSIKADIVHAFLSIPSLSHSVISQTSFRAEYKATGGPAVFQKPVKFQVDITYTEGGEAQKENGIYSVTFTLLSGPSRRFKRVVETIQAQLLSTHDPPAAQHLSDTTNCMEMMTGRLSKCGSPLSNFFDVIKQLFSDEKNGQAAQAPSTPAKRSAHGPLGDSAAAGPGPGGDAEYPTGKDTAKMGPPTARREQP
Sequence of NTRK3 (human) (Q16288 whole entry, looked up): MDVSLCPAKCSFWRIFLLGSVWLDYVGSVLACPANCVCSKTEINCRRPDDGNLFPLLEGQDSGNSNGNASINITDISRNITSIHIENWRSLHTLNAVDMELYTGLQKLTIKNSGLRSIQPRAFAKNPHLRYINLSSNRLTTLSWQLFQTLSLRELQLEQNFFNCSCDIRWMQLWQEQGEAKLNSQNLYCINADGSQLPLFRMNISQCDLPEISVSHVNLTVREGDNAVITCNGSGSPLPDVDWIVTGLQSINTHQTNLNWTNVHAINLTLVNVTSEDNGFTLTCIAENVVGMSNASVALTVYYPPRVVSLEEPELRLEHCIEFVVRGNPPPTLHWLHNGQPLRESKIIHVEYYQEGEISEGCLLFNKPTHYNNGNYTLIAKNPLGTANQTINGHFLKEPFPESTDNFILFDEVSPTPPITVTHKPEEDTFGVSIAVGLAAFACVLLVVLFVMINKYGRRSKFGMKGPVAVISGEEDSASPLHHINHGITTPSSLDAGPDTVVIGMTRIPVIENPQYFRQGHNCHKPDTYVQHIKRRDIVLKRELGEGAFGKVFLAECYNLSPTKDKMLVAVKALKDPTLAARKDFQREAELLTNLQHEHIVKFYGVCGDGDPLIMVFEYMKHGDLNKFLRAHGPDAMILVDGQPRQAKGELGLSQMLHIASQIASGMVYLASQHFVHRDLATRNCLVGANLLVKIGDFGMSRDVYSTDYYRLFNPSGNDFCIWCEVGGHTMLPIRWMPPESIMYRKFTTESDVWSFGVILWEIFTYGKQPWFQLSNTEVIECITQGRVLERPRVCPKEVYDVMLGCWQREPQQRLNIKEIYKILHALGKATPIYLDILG
Sequence of PIM1 (human) (P11309 whole entry, looked up): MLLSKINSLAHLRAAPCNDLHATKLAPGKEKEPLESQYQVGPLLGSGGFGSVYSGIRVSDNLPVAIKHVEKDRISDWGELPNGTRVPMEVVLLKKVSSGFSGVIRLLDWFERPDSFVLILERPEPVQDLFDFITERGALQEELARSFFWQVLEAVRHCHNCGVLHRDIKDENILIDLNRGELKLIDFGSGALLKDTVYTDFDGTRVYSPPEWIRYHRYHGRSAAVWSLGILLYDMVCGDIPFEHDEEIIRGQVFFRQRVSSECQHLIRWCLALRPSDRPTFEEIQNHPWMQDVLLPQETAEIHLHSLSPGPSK

For `CCOC(=O)c1c(C)[nH]c(/C=C2\C(=O)Nc3ccccc32)c1C`, the residual activity (BRSK2 (human)) was 98.7%, the residual activity (STK24 (human)) was 82.5% and the residual activity (NUAK1 (human)) was 62.3%. The residual activity (CSNK2A2 (human)) was 94.7%, the residual activity (CLK4 (human)) was 94.3% and the residual activity (KIT (human)) was 46.3%. It also gave a residual activity (GRK5 (human)) of 102%, a residual activity (NLK (human)) of 94.8% and a residual activity (CDK2 CCNE1 (human)) of 95.6%. The residual activity (ABL2 (human)) was 88.5%, the residual activity (WNK3 (human)) was 104% and the residual activity (HIPK3 (human)) was 94.5%. The residual activity (ROCK2 (human)) was 94.3%, the residual activity (EPHA2 (human)) was 105% and the residual activity (PRKCG (human)) was 91.9%. The residual activity (ACVRL1 (human)) was 94.8%, the residual activity (CSNK1A1 (human)) was 98.6% and the residual activity (CSNK1G3 (human)) was 97.9%. It also gave a residual activity (PRKACA (human)) of 97.3%, a residual activity (NEK2 (human)) of 91.4% and a residual activity (AURKB (human)) of 67.3%. For the same compound, the residual activity (CSNK1E (human)) was 73.7%, the residual activity (CDK1 CCNA2 (human)) was 96.3% and the residual activity (EPHB1 (human)) was 97.5%. For the same compound, the residual activity (MYLK (human)) was 94.8%, the residual activity (AKT1 (human)) was 96.1% and the residual activity (FLT3 (human)) was 13.3%. For the same compound, the residual activity (MARK2 (human)) was 87.6%, the residual activity (PRKCB2 (human)) was 91.5% and the residual activity (STK4 (human)) was 83.4%. It also gave a residual activity (CDK9 CCNT1 (human)) of 94.7%, a residual activity (TNK2 (human)) of 92.7% and a residual activity (GRK7 (human)) of 86.3%. The residual activity (MAPKAPK5 (human)) was 93.9%, the residual activity (HIPK4 (human)) was 90.2% and the residual activity (NTRK3 (human)) was 27.9%. For the same compound, the residual activity (MERTK (human)) was 69.3%, the residual activity (KDR (human)) was 93.2% and the residual activity (MAPK9 (human)) was 93.9%. It also gave a residual activity (FLT1 (human)) of 79%, a residual activity (PIM1 (human)) of 95.8% and a residual activity (SRPK3 (human)) of 88.8%.

With `CC#CC(=O)Nc1cc2c(Nc3ccc(F)c(Cl)c3)ncnc2cn1` the residual activity (BRSK2 (human)) was 93.3%, the residual activity (STK24 (human)) was 107% and the residual activity (NUAK1 (human)) was 98.1%. For the same compound, the residual activity (CSNK2A2 (human)) was 96.5%, the residual activity (CLK4 (human)) was 90.4% and the residual activity (KIT (human)) was 98.5%. It also gave a residual activity (GRK5 (human)) of 105%, a residual activity (NLK (human)) of 99.7% and a residual activity (CDK2 CCNE1 (human)) of 98.1%. For the same compound, the residual activity (ABL2 (human)) was 89.4%, the residual activity (WNK3 (human)) was 95.1% and the residual activity (HIPK3 (human)) was 92.9%. The residual activity (ROCK2 (human)) was 98.7%, the residual activity (EPHA2 (human)) was 103% and the residual activity (PRKCG (human)) was 97.2%. For the same compound, the residual activity (ACVRL1 (human)) was 101%, the residual activity (CSNK1A1 (human)) was 107% and the residual activity (CSNK1G3 (human)) was 111%. The residual activity (PRKACA (human)) was 97.7%, the residual activity (NEK2 (human)) was 103% and the residual activity (AURKB (human)) was 101%. The residual activity (CSNK1E (human)) was 93.6%, the residual activity (CDK1 CCNA2 (human)) was 96.5% and the residual activity (EPHB1 (human)) was 92%. For the same compound, the residual activity (MYLK (human)) was 98.8%, the residual activity (AKT1 (human)) was 98.1% and the residual activity (FLT3 (human)) was 92.1%. The residual activity (MARK2 (human)) was 105%, the residual activity (PRKCB2 (human)) was 99.5% and the residual activity (STK4 (human)) was 98.7%. The residual activity (CDK9 CCNT1 (human)) was 90.6%, the residual activity (TNK2 (human)) was 95.1% and the residual activity (GRK7 (human)) was 106%. For the same compound, the residual activity (MAPKAPK5 (human)) was 96.3%, the residual activity (HIPK4 (human)) was 99.7% and the residual activity (NTRK3 (human)) was 95.3%. It also gave a residual activity (MERTK (human)) of 84.5%, a residual activity (KDR (human)) of 98.2% and a residual activity (MAPK9 (human)) of 91.8%. It also gave a residual activity (FLT1 (human)) of 100%, a residual activity (PIM1 (human)) of 98.6% and a residual activity (SRPK3 (human)) of 101%.

Work on `CO[C@H]1CC2CC[C@@H](C)[C@@](O)(O2)C(=O)C(=O)N2CCCC[C@H]2C(=O)OC([C@H](C)C[C@@H]2CC[C@@H](O)[C@H](OC)C2)CC(=O)[C@H](C)/C=C(\C)[C@@H](O)[C@@H](OC)C(=O)[C@H](C)C[C@H](C)/C=C/C=C/C=C/1C` (stereo partly specified) yielded a residual activity (BRSK2 (human)) of 109%, a residual activity (STK24 (human)) of 93.5% and a residual activity (NUAK1 (human)) of 101%. It also gave a residual activity (CSNK2A2 (human)) of 94.2%, a residual activity (CLK4 (human)) of 116% and a residual activity (KIT (human)) of 95.7%. It also gave a residual activity (GRK5 (human)) of 98.7%, a residual activity (NLK (human)) of 97.3% and a residual activity (CDK2 CCNE1 (human)) of 91.3%. For the same compound, the residual activity (ABL2 (human)) was 94.2%, the residual activity (WNK3 (human)) was 102% and the residual activity (HIPK3 (human)) was 107%. It also gave a residual activity (ROCK2 (human)) of 108%, a residual activity (EPHA2 (human)) of 107% and a residual activity (PRKCG (human)) of 106%. For the same compound, the residual activity (ACVRL1 (human)) was 97.9%, the residual activity (CSNK1A1 (human)) was 99.3% and the residual activity (CSNK1G3 (human)) was 108%. It also gave a residual activity (PRKACA (human)) of 99.8%, a residual activity (NEK2 (human)) of 107% and a residual activity (AURKB (human)) of 95.2%. It also gave a residual activity (CSNK1E (human)) of 102%, a residual activity (CDK1 CCNA2 (human)) of 91.9% and a residual activity (EPHB1 (human)) of 110%. The residual activity (MYLK (human)) was 102%, the residual activity (AKT1 (human)) was 104% and the residual activity (FLT3 (human)) was 95.6%. It also gave a residual activity (MARK2 (human)) of 104%, a residual activity (PRKCB2 (human)) of 89.1% and a residual activity (STK4 (human)) of 106%. The residual activity (CDK9 CCNT1 (human)) was 87%, the residual activity (TNK2 (human)) was 98.5% and the residual activity (GRK7 (human)) was 98%. It also gave a residual activity (MAPKAPK5 (human)) of 98%, a residual activity (HIPK4 (human)) of 92.9% and a residual activity (NTRK3 (human)) of 103%. For the same compound, the residual activity (MERTK (human)) was 90.9%, the residual activity (KDR (human)) was 98.1% and the residual activity (MAPK9 (human)) was 98.4%. The residual activity (FLT1 (human)) was 97.7%, the residual activity (PIM1 (human)) was 104% and the residual activity (SRPK3 (human)) was 97.2%.
